Test results from PMC3241989, “ADP Regulates SNF1, the Saccharomyces cerevisiae Homolog of AMP-Activated Protein Kinase” (Cell Metabolism, 2011).

Columns and labels:
[1] = target: T1, regulatory fragment of SNF1 (Snf4(1-322)Sip2(304-415)Snf1(457-633)) (Saccharomyces cerevisiae, UniProt P12904); test: X-ray crystallography, crystal soak; assay type: binding; settings: site 4 of Snf4
T1 construct: C-terminal domains of Snf1 and Sip2 with full-length Snf4 (1-322; b14 prints 1-332), tricistronic E. coli expression, His-tag removed with PreScission protease; with Carbon catabolite-derepressing protein kinase; SNF1 protein kinase subunit beta-2
T1 sequence (P12904 1-322): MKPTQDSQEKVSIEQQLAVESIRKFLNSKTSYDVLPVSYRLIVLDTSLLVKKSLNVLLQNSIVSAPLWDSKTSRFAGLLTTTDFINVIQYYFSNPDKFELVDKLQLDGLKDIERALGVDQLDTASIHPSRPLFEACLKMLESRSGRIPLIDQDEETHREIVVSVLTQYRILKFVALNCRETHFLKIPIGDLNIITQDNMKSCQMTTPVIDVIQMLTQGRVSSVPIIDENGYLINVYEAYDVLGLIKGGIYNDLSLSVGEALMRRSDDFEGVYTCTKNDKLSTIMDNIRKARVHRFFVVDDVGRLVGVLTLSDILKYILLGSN
T1 sequence (P34164 304-415 partner): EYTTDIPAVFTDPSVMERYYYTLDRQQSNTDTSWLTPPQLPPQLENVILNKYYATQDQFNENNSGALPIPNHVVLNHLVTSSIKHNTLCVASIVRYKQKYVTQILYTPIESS
T1 sequence (P06782 457-633 partner): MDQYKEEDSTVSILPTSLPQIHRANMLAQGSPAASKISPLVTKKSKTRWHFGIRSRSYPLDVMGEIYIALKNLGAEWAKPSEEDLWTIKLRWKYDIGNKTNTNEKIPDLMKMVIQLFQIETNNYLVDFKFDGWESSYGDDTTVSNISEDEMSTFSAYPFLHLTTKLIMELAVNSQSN

[2] = target: T2, SNF1 complex (Snf1(1-633)Gal83(1-417)Snf4(1-322)) (Saccharomyces cerevisiae, UniProt P12904); test: fluorescence titration of coumarin nucleotide with SNF1; assay type: binding; settings: read-out: Kd,I
T2 construct: full-length heterotrimer, His-tagged, expressed in E. coli, nickel-Sepharose; phosphorylated on Snf1 Thr210 by CaMKKbeta; with Carbon catabolite-derepressing protein kinase; SNF1 protein kinase subunit beta-3
T2 sequence (P12904 1-322): T1 sequence (P12904 1-322)
T2 sequence (P06782 1-633 partner): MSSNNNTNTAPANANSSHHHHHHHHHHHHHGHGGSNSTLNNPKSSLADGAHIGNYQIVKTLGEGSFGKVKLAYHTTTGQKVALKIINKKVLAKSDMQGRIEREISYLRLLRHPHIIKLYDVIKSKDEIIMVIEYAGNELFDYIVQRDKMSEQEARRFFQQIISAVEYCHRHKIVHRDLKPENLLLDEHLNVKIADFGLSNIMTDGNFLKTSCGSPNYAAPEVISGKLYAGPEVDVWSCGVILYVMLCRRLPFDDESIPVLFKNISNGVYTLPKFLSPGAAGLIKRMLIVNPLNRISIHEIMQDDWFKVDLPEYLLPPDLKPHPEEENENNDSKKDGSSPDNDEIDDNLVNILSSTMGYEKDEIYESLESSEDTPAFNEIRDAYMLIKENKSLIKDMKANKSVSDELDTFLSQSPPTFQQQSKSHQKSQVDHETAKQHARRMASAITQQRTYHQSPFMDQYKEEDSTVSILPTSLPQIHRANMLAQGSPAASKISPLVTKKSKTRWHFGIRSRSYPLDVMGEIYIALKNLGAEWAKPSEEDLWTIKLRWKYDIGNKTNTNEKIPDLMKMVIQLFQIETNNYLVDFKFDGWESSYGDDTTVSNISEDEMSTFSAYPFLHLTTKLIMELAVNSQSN
T2 sequence (Q04739 1-417 partner): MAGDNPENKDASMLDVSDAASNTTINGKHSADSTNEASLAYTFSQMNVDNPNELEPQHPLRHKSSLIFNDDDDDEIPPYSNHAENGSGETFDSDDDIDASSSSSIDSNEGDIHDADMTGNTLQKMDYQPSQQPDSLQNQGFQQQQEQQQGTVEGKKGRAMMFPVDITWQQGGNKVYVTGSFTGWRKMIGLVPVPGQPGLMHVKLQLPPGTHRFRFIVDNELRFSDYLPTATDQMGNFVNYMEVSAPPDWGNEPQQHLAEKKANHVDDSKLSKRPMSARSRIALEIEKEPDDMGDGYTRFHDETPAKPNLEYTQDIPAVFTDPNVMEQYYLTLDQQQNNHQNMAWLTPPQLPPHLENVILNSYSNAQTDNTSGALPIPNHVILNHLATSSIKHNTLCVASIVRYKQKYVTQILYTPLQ

[3] = target: T2, SNF1 complex (Snf1(1-633)Gal83(1-417)Snf4(1-322)); test: fluorescence competition against NADH; assay type: binding; settings: phosphorylated SNF1, 20°C, 50 mM Tris pH 8, 100 mM NaCl, 1 mM TCEP
[4] = target: T2, SNF1 complex (Snf1(1-633)Gal83(1-417)Snf4(1-322)); test: protection of Snf1 phospho-Thr210 against dephosphorylation by PP2C (western blot); assay type: biochemical; settings: read-out: half-maximal effect
[5] = no Mg, tight site, competitive with NADH, error is SD, read-out: Kd (μM) / Versus C-AXPs

| Kd [3, 5] [µM] | SMILES | X-ray crystallography, crystal soak [1] | other results |
| --- | --- | --- | --- |
|  | NC(=O)C1=CN([C@@H]2O[C@H](COP(=O)(O)OP(=O)(O)OC[C@H]3O[C@@H](n4cnc5c(N)ncnc54)[C@H](O)[C@@H]3O)[C@@H](O)[C@H]2O)C=CC1 [NADH] | strong, well-resolved electron density for AMP, ADP, and NADH |  |
|  | CCN(CC)c1ccc2cc(C(=O)N[C@H]3[C@@H](O)[C@H](n4cnc5c(N)ncnc54)O[C@@H]3COP(=O)(O)OP(=O)(O)O)c(=O)oc2c1 [C-ADP, 3′-(7-diethylaminocoumarin-3-carbonylamino)-3′-deoxyadenosine 5′ diphosphate] |  | Kd [2]: 9 µM |
|  | NC(=O)c1ccc[n+]([C@@H]2O[C@H](COP(=O)(O)OP(=O)(O)OC[C@H]3O[C@@H](n4cnc5c(N)ncnc54)[C@H](O)[C@@H]3O)[C@@H](O)[C@H]2O)c1 [NAD^+] |  | Kd ([3]; read-out: Kd): > 250 µM |
| 72 | Nc1ncnc2c1ncn2[C@@H]1O[C@H](COP(=O)(O)OP(=O)(O)O)[C@@H](O)[C@H]1O [ADP] | strong, well-resolved electron density for AMP, ADP, and NADH | EC50 [4]: ~500 µM |
|  | Nc1ncnc2c1ncn2[C@@H]1O[C@H](COP(=O)(O)O)[C@@H](O)[C@H]1O [AMP] | strong, well-resolved electron density for AMP, ADP, and NADH |  |
| 120 | Nc1ncnc2c1ncn2[C@@H]1O[C@H](COP(=O)(O)OP(=O)(O)OP(=O)(O)O)[C@@H](O)[C@H]1O [ATP] |  |  |
